# Results reported in article PMC8187357 (Communications Biology, 2021).
# Several values for one entry are separate records, joined by “and”; a condition that tells them apart may be missing. Equal values may be shown once.
# Assays:
# [1] = target: T1, PD-L1 (Mus musculus, UniProt Q9EP73); assay: Rescue of PD-L1 mediated inhibition of proliferation, mouse splenocytes; assay type: cell-based; conditions: splenocyte-based assay
# T1 construct: purchased R&D Systems 1019-B7-100
# Experimental: (§1) The ability of peptides, peptidomimetics, and small molecules were analyzed for their ability to rescue T-cell proliferation or IFN-γ release from the inhibitory activity of PD-L1 or PD-L2 in a splenocyte/PBMC-based functional assay as per the protocols reported in publication. […] For all in vitro assays, test agent stock was prepared in water and diluted further in the assay media to achieve test concentrations. Each experimental condition was carried out in triplicates. Percent rescue for a given test compound concentration was calculated by normalizing individual percent test agent proliferation or IFN-γ release values to percent anti-CD3 and anti-CD28 antibodies stimulated proliferation or IFN-γ release. EC50 values were derived by plotting transformed data into non-linear fit in sigmoidal dose–response curve using GraphPad Prism software (Version 7).
# [2] = target: T2, PD-L2 (Mus musculus, UniProt Q9WUL5); assay: Rescue of IFN-γ release inhibited by PD-L2, mouse splenocytes; assay type: cell-based; conditions: mean ± S.D.; n=2; read-out: Mouse Splenocyte IFN-γ Rescue EC50 PD-L2
# T2 construct: purchased R&D Systems 1022-PL-100
# T2 sequence (Q9WUL5 with tags, fused parts or gaps limits assumed): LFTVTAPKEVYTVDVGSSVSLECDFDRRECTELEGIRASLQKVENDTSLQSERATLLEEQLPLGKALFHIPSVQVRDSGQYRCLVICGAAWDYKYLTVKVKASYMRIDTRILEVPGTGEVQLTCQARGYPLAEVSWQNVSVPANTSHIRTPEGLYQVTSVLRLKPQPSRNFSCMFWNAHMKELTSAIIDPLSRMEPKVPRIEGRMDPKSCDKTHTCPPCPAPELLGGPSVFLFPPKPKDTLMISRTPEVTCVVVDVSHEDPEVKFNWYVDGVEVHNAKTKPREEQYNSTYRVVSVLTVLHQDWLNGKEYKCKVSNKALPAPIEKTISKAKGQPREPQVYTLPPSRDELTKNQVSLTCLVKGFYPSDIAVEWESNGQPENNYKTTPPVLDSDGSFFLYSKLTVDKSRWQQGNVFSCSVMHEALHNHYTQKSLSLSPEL
# Experimental: as §1
# [3] = target: T3, PD-L2 (Homo sapiens, UniProt Q9BQ51); assay: Rescue of proliferation inhibited by PD-L2, human PBMC; assay type: cell-based; conditions: mean ± S.D.; n=3
# T3 construct: purchased R&D systems 1224-PL-100
# T3 sequence (Q9BQ51 with tags, fused parts or gaps limits assumed): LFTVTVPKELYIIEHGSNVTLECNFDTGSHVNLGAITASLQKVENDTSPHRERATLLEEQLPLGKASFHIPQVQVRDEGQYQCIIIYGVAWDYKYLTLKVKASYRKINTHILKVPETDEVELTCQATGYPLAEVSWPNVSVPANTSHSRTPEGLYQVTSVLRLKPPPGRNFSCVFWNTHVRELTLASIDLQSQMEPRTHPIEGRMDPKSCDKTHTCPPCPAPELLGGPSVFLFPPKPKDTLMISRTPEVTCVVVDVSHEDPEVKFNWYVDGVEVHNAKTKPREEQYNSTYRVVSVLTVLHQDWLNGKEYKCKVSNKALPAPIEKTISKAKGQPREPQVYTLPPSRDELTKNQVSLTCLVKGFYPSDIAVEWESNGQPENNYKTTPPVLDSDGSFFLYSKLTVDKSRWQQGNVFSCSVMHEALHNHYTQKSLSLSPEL
# Experimental: as §1
# [4] = target: T4, full-length human PD-L1 overexpressed in CHO-K1 cells (Homo sapiens, UniProt Q9NZQ7); assay: Cellular NMR (T2) binding, PD-L1 overexpressing CHO-K1 cells; conditions: for I/I0 / T2: trials 1-3
# T4 construct: plasmid (pLVX puro-PD-L1; full-length human PD-L1); expressed in transfected cells; host or cells: CHO-K1 (lentiviral transduction)
# T4 sequence (Q9NZQ7 19-290): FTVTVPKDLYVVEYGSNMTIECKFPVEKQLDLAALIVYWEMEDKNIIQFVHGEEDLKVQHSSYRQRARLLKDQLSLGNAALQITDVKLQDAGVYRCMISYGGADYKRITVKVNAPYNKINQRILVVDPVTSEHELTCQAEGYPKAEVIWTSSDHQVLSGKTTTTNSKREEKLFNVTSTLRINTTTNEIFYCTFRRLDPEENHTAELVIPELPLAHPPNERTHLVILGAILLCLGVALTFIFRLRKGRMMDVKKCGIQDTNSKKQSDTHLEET
# Experimental: HEK293T cells were transfected with plasmid (pLVX puro-PD-L1; full-length human PD-L1) using Lenti-X packaging single shots (Takara Bio, Cat. Nos. 631275) as per the recommended kit protocol in order to generate lentiviral particles. The supernatant collected after 48 h containing the lentiviral particles was used for lentiviral transduction of CHO-K1 cells. The expression of PD-L1 on the CHO-K1 cells was determined by flow cytometry. Limiting dilution cloning was performed to isolate single clones of CHO-K1 cells expressing high levels of PD-L1.
# PD-L1 transfected CHO-K1 cells were cultured in Ham’s F12 K medium (Cat#21127-022, Gibco) containing penicillin & streptomycin antibiotic solution and 10% FBS (cat#SH30071-03, HyClone) along with 4 µg/mL of puromycin (Cat#A11138-03, Gibco), and were grown at 37 °C, 5% CO2 in a humidified atmosphere in tissue culture treated flask. 80–90% confluent cells were detached with PBS containing 2 mM EDTA, counted and washed twice with phosphate-buffered saline, pH 7.4 and re-suspended in PBS(cat#14190-144 Gibco) at a density of 8 million cells per mL. The cell suspension in PBS was transferred in a 5 mm Norell NMR tube containing 5% D2O and NMR experiments were performed under ligand titration. Cells remained viable under these experimental conditions as assessed by Trypan Blue staining method.
# NMR experiments were carried out using Bruker 800 MHz NMR spectrometer fitted with 5 mm TCI cryoprobe. The experiment was performed over 4 × 10^6 cells in 95% 1 X PBS, pH 7.4, after adding 5% (v/v) D2O at constant temperature 298 K employing the pulse sequence shown in Supplementary Fig. 1a. The FID obtained was processed employing TOPSPIN software version 3.5. The interaction studies of CA-170 and overexpressed cells were carried out using a two-point HSQC method by recording the first FID. Briefly, during the transfer of polarization from ^1H to ^13C in the forward INEPT part of the 2D [^13C, ^1H] HSQC experiment, an additional delay of 16 ms is introduced on the proton channel during which the signal decays due to transverse relaxation. A second experiment is recorded with this delay set to […], the experimental parameters used to record these two spectra are given in Supplementary Table 7. A representative NMR spectrum of superimposed first FID of modified 2D [^13C, ^1H] HSQC of CA-170 treatment with PD-L1 overexpressed CHO-K1 cells is shown in Supplementary Fig. 1b.
# The signal at any point of time is related to the initial intensity as follows. I=Ioexp(−Δt/T2) Where Δt is the difference between initial and final time points and I and Io are the final and initial intensity respectively. The transverse relaxation time (T2) of the ligand protons is calculated from the signal intensity ratio obtained from the above experiments by using the following equation which can be obtained from the above relation (Supplementary Table 8). T2=Relaxationdelay(τ)/−log(I/I0) where I = Area of the peak with delay (16 ms delay); I0 = Area of the peak without delay (16 μs delay).
# [5] = system: Cl-Channel; assay: CEREP 80 panel binding: Cl-Channel; conditions: 10 µM
# Experimental: (§2) CEREP 80 panel assay was carried out by Eurofins Cerep Panlabs facility at France. A series of binding assays was carried out to understand the off-target toxicity of CA-170. CA-170 was tested at 10 μM test concentration in duplicates. Compound binding was calculated as a % inhibition of the binding of a radioactively labeled ligand specific for each target. In each experiment the respective reference compound was tested concurrently with CA-170, and the data were compared with historical values determined at Eurofins. The experiment was accepted in accordance with Eurofins validation standard operating procedure. The results are expressed as a percent of control specific binding; (measured specific binding / control specific binding) × 100 and as a percent inhibition of control specific binding; 100−(measured specific binding / control specific binding) × 100 obtained in the presence of CA-170. The IC50 values (concentration causing a half-maximal inhibition of control specific binding) and Hill coefficients (nH) were determined by non-linear regression analysis of the competition curves generated with mean replicate values using Hill equation curve fitting.
# [6] = target: T5, CGRP (Homo sapiens, UniProt O60894+Q16602); assay: CEREP 80 panel binding: CGRP; conditions: read-out: % Inhibition of Control Specific Binding
# T5 construct: Eurofins Cerep Panlabs (contract assay)
# T5 sequence (Q16602 23-461): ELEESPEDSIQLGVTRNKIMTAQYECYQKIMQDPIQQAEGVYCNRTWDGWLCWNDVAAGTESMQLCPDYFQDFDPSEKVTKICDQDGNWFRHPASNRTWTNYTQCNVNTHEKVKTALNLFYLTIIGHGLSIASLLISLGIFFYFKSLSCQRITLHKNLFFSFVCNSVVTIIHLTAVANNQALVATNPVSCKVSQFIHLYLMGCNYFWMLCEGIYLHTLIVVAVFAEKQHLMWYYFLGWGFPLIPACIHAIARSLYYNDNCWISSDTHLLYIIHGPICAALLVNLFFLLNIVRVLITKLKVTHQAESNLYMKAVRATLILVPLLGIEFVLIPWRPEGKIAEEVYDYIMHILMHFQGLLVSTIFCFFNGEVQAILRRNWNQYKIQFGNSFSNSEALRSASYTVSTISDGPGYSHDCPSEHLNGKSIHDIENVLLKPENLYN
# T5 sequence (O60894 27-148): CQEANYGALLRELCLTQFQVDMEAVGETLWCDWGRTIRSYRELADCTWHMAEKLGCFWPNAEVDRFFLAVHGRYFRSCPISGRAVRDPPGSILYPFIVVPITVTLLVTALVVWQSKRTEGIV
# Experimental: as §2
# [7] = target: T6, Neurotensin NTS1 (Homo sapiens, UniProt P30989); assay: CEREP 80 panel binding: Neurotensin; conditions: read-out: % Inhibition of Control Specific Binding
# T6 construct: Eurofins Cerep Panlabs (contract assay)
# T6 sequence (P30989 whole entry): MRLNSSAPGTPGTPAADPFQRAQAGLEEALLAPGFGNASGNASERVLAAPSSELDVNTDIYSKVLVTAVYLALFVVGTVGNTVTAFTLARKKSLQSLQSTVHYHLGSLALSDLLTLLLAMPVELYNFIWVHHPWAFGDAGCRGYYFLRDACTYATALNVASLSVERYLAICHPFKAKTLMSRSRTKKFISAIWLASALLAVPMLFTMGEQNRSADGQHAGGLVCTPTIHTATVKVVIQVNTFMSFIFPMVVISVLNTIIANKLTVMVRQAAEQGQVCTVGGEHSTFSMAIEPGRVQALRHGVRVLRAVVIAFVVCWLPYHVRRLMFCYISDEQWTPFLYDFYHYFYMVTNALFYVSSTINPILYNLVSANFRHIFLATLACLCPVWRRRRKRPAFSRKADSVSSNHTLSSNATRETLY
# Experimental: as §2
# [8] = system: advanced (stage 4) non-squamous NSCLC; design: method as in doi:10.1093/annonc/mdz253.035; conditions: Phase 2, cited from earlier work
# [9] = Plasma stability, mice; conditions: mouse
# Experimental: Test compounds were tested for plasma stability (test concentration of 10 μM) as per the protocols reported in publication[20].
# [10] = CA-170 5.0 µM, PD-L1 overexpressed CHO-K1
# [11] = CA-170 7.5 μM, PD-L1 Overexpressed CHO-K1
# [12] = CA-170 10.0 μM, PD-L1 Overexpressed CHO-K1
# [13] = CA-170 15.0 μM, PD-L1 Overexpressed CHO-K1
# [14] = CA-170 20.0 μM, PD-L1 Overexpressed CHO-K1
# [15] = CA-170 40.0 μM, PD-L1 Overexpressed CHO-K1
# T1 sequence (Q9EP73 with tags, fused parts or gaps limits assumed): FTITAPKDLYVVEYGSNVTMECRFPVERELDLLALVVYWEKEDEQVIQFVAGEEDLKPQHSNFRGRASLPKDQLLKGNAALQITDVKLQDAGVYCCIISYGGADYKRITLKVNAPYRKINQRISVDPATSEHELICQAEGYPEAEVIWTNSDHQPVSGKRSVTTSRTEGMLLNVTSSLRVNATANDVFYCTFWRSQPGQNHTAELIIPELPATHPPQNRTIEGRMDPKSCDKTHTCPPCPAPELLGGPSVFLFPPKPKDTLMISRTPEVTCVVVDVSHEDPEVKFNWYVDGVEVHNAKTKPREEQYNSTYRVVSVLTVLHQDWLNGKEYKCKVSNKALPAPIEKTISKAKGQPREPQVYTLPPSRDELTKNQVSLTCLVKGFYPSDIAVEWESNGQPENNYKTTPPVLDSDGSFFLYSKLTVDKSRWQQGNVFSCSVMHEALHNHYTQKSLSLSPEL
smiles,measurement,setting,value
C[C@@H](O)[C@H](NC(=O)N[C@@H](CC(N)=O)c1nc([C@@H](N)CO)no1)C(=O)O [CA-170],EC50,[1],15.4 ± 1.3 nM
same,EC50,[2],78.3 nM
same,EC50,[3],51.5 nM
same,I/I0,[4]; [10],0.34 and 0.35
same,T2,[4]; [10],29.67 mS and 35.08 mS and 33.97 mS
same,I/I0,[4]; [11],0.43 and 0.4 and 0.49
same,T2,[4]; [11],43.70 mS and 51.60 mS and 41.00 mS
same,I/I0,[4]; [12],0.45 and 0.47 and 0.39
same,T2,[4]; [12],46.10 mS and 48.48 mS and 38.70 mS
same,I/I0,[4]; [13],0.55 and 0.48 and 0.49
same,T2,[4]; [13],61.50 mS and 50.00 mS and 52.00 mS
same,I/I0,[4]; [14],0.57 and 0.53 and 0.51
same,T2,[4]; [14],66.12 mS and 58.18 mS and 55.36 mS
same,I/I0,[4]; [15],0.58 and 0.55 and 0.57
same,T2,[4]; [15],67.51 mS and 61.50 mS and 66.67 mS
same,binding to PD-L1 overexpressed in the cellular context (in words),[4]; cell-based NMR,specific interaction of CA-170 to PD-L1
same,% Inhibition of Control Specific Binding,[5],2%
same,inhibition at 10 µM,[6],1%
same,inhibition at 10 µM,[7],7%
same,PFS,[8]; advanced (stage 4) non-squamous NSCLC,19.6 weeks
same,CBR,"[8]; daily dose of 400 mg, advanced non-squamous NSCLC",> 85%
same,"remaining at 4 h, 10 μM",[9],> 95%
